{"source": "paper PMC5618429", "about": "“Kempopeptin C, a Novel Marine-Derived Serine Protease Inhibitor Targeting Invasive Breast Cancer” (Marine Drugs, 2017)", "key": {"[1]": {"system": "CDCP1 cleavage in MDA-MB-231 cells", "assay": "Cleavage of CDCP1 in MDA-MB-231 cells (Western blot)", "format": "cell-based", "experimental": "The experiment was performed by treating MDA-MB-231 cells with different concentrations of either kempopeptin B (2) or C (3) for 72 h (Figure 6A). Dexamethasone (Dex) 100 nM was used as a positive control.\nFigure 6 The effect of kempopeptins B and C (2 and 3) on CDCP1 cleavage in MDA-MB-231. (A) MDA-MB-231 cells were treated for 72 h with different concentrations of the test compounds. Following 72 h, the lysates were collected and analyzed by Western blot. (B) MDA-MB-231 cells were treated at different time points with 100 µM of kempopeptin C (3). Following 6 h, 12 h and 24 h, the lysates were collected and analyzed by Western blot. Dexamethasone (Dex) was used as a positive control. (C) MDA-MB-231 cells treated for 24 h with different concentrations of 3 in the presence of 10 nM recombinant human matriptase. Cell lysates were harvested and analyzed by Western blot. (D) Densitometric analysis of the full-length, LMW of CDCP1 and actin bands in (C).\nMDA-MB-231 cells (150,000 cells/well) were seeded in 12-well plates. After 24 h, the media were replaced, and cells were treated with different concentrations of inhibitors (2 or 3; prepared in DMSO), the solvent control or the positive control dexamethasone. Whole-cell protein lysates were collected after 6, 12, 24 and 72 h using PhosphoSafe lysis buffer (Novagen, Madison, USA) and the protein concentration measured using the BCA Protein Assay kit (Pierce; 23227; Thermofisher Scientific; Waltham, MA, USA). Twenty micrograms of protein were separated by SDS-PAGE, transferred to polyvinylidene difluoride (PVDF) membranes, probed with CDCP1 antibody (Cell Signaling; 4115S) and detected with SuperSignal West Femto Maximum Sensitivity Substrate (Pierce)."}, "[2]": {"target": "T1, recombinant human matriptase (Homo sapiens, UniProt Q9Y5Y6)", "T1 construct": "purchased R&D Systems 3946-SE-010", "T1 sequence (Q9Y5Y6 615-855 limits assumed)": "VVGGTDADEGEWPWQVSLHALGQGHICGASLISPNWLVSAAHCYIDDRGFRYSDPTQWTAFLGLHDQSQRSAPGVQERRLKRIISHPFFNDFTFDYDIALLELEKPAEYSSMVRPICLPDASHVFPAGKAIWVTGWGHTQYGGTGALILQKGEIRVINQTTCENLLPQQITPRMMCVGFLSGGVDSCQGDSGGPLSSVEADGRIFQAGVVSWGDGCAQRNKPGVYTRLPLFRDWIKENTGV", "assay": "In vitro cleavage of CDCP1 by matriptase (SDS-PAGE, silver stain)", "format": "biochemical", "conditions": "enzyme to substrate ratio 1:5, pH 9.0, 37 °C, 30 min and 2 h, 10‒0.01 µM inhibitor, qualitative", "text": "Due to the significance of these proteases in cancer progression and metastasis, as well as their functional redundancy with respect to targeting overlapping substrates, we focused our studies on examining the effect of kempopeptin C (3) on the downstream cellular substrates of matriptase. Due to the limited amount of 3, our study aimed to provide a qualitative preliminary characterization of CDCP1 and Dsg-2 cleavage inhibition by kempopeptin C (3). […] CDCP1 is considered a potential prognostic marker with expression levels found to correlate with the recurrence and survival rate of cancer patients. […] The exact mechanism regulating the generation of the LMW fragment is poorly understood; however, there is evidence for the involvement of serine protease proteolytic activity. Several studies provided evidence for serine protease-mediated (trypsin, plasmin and matriptase) cleavage of CDCP1 [15, 38]. Therefore, we examined the ability of recombinant human matriptase to cleave CDCP1 in vitro and assessed the effect of kempopeptin C (3) on inhibiting/reducing this cleavage. Recombinant human matriptase was incubated with CDCP1 (final molar ratio 1:5) at different time points (30 min and 2 h) at 37 °C in the presence of varying concentrations of kempopeptin C (3) or solvent control (Figure 4A,B). […] LMW fragments were more readily detected at longer incubation times (2 h). […]"}}, "data": [{"smiles": "CCCC(=O)NC(C(=O)NC1C(=O)NC(CCCCN)C(=O)NC2CCC(O)N(C2=O)C(C(C)CC)C(=O)N(C)C(Cc2ccc(OC)c(Cl)c2)C(=O)NC(C(C)C)C(=O)OC1C)C(C)C", "note": "(stereo not shown) [Kempopeptin C, kempopeptin C]", "values": [{"measurement": "Inhibition of CDCP1 cleavage in MDA-MB-231", "setting": "[1]; 100 µM, 6, 12 and 24 h", "value": "no inhibition of CDCP1 cleavage was detected"}, {"measurement": "Inhibition of CDCP1 cleavage in MDA-MB-231", "setting": "[1]; 72 h, different concentrations", "value": "No inhibition of CDCP1 cleavage was observed"}, {"measurement": "Inhibition of in vitro cleavage of CDCP1 by matriptase", "setting": "[2]", "value": "inhibit the cleavage"}, {"measurement": "Inhibition of in vitro cleavage of CDCP1 by matriptase", "setting": "[2]; listed as Kempopeptin C (3)", "value": "able to only minimize the cleavage at 10 µM"}]}]}
